Source: patent publication US20090060984A1, “ANIONIC SURFACTANTS LETHAL TO GRAM-POSITIVE BACTERIA” (priority 2007, published 2009)
Several values for one entry are separate records, joined by “and”; a condition that tells them apart may be missing. Equal values may be shown once. Read-outs that look alike come from different tables or passages of the source.

Experiments:
B. subtilis = assay: Sodium surfactant polyurethane coated microscope slides, surviving bacteria; conditions: for CFU/mL B. subtilis: 30% sodium surfactant polyurethane coated microscope slides, two data sets
Serratia marcescens = assay: Growth on surfactant/TSA agar plates; assay type: cell-based; conditions: the one Gram-negative not resistant
Procedure: This solution was then aliquoted into sterile petri dishes, approximately 25 mL per plate, and allowed to solidify. The organisms were grown in 5 mL of Trypticase Soy Broth. The sterile broth was inoculated with a single isolated colony from a stock culture and allowed to incubate in a shaking water bath at 37° C. for 8-10 hours. The estimated concentration was about 10^9 CFU/mL. Some plates were tested with a 1:100 dilution of these cultures to arrive at an approximate concentration of 10^7 CFU/mL. Then, 10 μL of each overnight culture was pipetted directly onto the surface of the surfactant/TSA plates, which were then allowed to incubate at 37° C. for 24 hours. Results were based on the presence or absence of bacterial growth on the surface of the agar.

S. aureus [1] = assay: Sodium surfactant polyurethane coated microscope slides, surviving bacteria; conditions: for CFU/mL S. aureus: 30% sodium surfactant polyurethane coated microscope slides, two data sets
E. coli = assay type: cell-based, Escherichia coli; conditions: 24 h contact time
Procedure: Escherichia coli ATCC 11229 (Culti-loops, Remel Europe, Dartford, Kent, UK) and Pseudomonas aeruginosa ATCC 15442 (Cuti-loops, Remel Europe, Dartford, Kent, UK) were selected as model Gram-negative organisms for the challenge testing of the antimicrobial coatings. Each bacterial strain was streaked for isolated colonies on Tryptic Soy Agar (TSA) plates (Difco, Becton Dickinson, Sparks, Md., U.S.A.) and incubated at 37° C. for 12 to 18 hours. Broth cultures were prepared by first picking 1-2 isolated colonies from TSA plates and inoculating 5 mL Tryptic Soy Broth (TSB; Difco, Becton Dickinson, Sparks, Md., U.S.A.) in a 16 mm test tube. This culture was grown in a shaking water bath at 150 RPM for 8 hours at 37° C. After the eight hours, 125 μL of this culture was added to 50 mL of TSB in a side-arm Klett flask and grown for approximately 8 hours in shaking water bath (150 RPM) at 37° C. The bacterial broths were grown to an A590 of 1.2-1.5, which correlated to approximately 10^9 CFU (colony forming units)/mL. 25 mL of this broth were transferred to a sterile 30 mL Oakridge tube and centrifuged at 12,000×g for 10 minutes at 4° C. (Sorval SS34 rotor) to pelletize the bacteria. The bacterial pellet was washed once and resuspended in 25 mL of phosphate buffer solution (PBS; BBL, FTA Hemaglutination Buffer, Becton Dickinson, Sparks, Md., U.S.A.). The suspension was diluted with PBS to achieve the target range of 10^5-10^6 CFU/mL and used to inoculate the slides containing antibacterial coatings.
Xylene/methanol (5:1 by weight) is used to dissolve the silver surfactants to facilitate homogeneously mixing with the alkyd resin composition.
A minus sign (−) denotes no growth, a plus sign (+) denotes confluent growth, and a capital P (P) denotes […].
Xylene/methanol (5:1 by weight) is used to dissolve the silver surfactants to facilitate homogeneously mixing with the acrylic resin composition.
The same laboratory experimental solvent based acrylic paint described in Example 34 is used to challenge E. coli by adding various levels of the invention silver anionic surfactants as described in Example 34.
A commercially available 2K epoxy resin paint is obtained from a local paint store (Sherwin Williams High Solids Epoxy Tile Clad HS; Part A B62WC11; Part B B60VZ75, The Sherwin Williams Company) and the same silver anionic surfactants described in Example 35 are used to prepare test coatings on microscope slides containing various levels of silver ion. These surfactants are dissolved in xylene/methanol (5:1 by weight) to facilitate their quantitative addition to the coating mixture.

S. aureus [2] = assay type: cell-based, Staphylococcus aureus; conditions: laboratory acrylic clearcoat, 24 h contact time
Text: A laboratory experimental solvent based acrylic paint is formulated and then used to challenge S. aureus by adding various levels of the invention silver anionic surfactants as described in Example 33. A binder is made by solution polymerization of butyl acrylate (25% w/w), methylmethacrylate (73.5% w/w), and methacrylic acid (1.5% w/w) in amylacetate using thermal initiation. This solution polymer is then used to make a 60% solids clearcoat binder in xylene/methanol (5:1 by weight). The silver anionic surfactants are dissolved in this same xylene/methanol mixture prior to addition to the clearcoat.

[3] = after 12 and 24 hours of exposure, polyurethane coated slides

## CCCCC(CC)COC(=O)CC(C(=O)OCC(CC)CCCC)S(=O)(=O)[O-].[Na+] (stereo not shown) [NaAOT, Sodium bis(2-ethylhexyl)sulfosuccinate]
B. subtilis; [3]
  Killing of B. subtilis: killed all
B. subtilis; exposure 12 hours
  CFU/mL B. subtilis: 0 CFU/mL
B. subtilis; exposure 24 hours
  CFU/mL B. subtilis: 0 CFU/mL
Serratia marcescens
  Effect on Serratia marcescens: except for Serratia marcescens
S. aureus [1]; [3]
  Killing of S. aureus: killed all
S. aureus [1]; exposure 12 hours
  CFU/mL S. aureus: 0 CFU/mL
S. aureus [1]; exposure 24 hours
  CFU/mL S. aureus: 0 CFU/mL

## silver linearalkanebenzene sulfonate [AgLABS]
E. coli; alkyd resin paint, 0.0012 weight % Ag in coating
  E. coli growth on coating: +
E. coli; alkyd resin paint, 0.003 weight % Ag in coating
  E. coli growth on coating: +
E. coli; alkyd resin paint, 0.006 weight % Ag in coating
  E. coli growth on coating: +
E. coli; alkyd resin paint, 0.012 weight % Ag in coating
  E. coli growth on coating: +
E. coli; alkyd resin paint, 0.03 weight % Ag in coating
  E. coli growth on coating: −
E. coli; alkyd resin paint, 0.06 weight % Ag in coating
  E. coli growth on coating: −
E. coli; alkyd resin paint, 0.12 weight % Ag in coating
  E. coli growth on coating: −
E. coli; commercial 2K epoxy paint, 0.0012 weight % Ag in coating
  E. coli growth on coating: +
E. coli; commercial 2K epoxy paint, 0.003 weight % Ag in coating
  E. coli growth on coating: +
E. coli; commercial 2K epoxy paint, 0.006 weight % Ag in coating
  E. coli growth on coating: +
E. coli; commercial 2K epoxy paint, 0.012 weight % Ag in coating
  E. coli growth on coating: +
E. coli; commercial 2K epoxy paint, 0.03 weight % Ag in coating
  E. coli growth on coating: −
E. coli; commercial 2K epoxy paint, 0.06 weight % Ag in coating
  E. coli growth on coating: −
E. coli; commercial 2K epoxy paint, 0.12 weight % Ag in coating
  E. coli growth on coating: −
E. coli; commercial 2K epoxy paint
  Silver level giving complete inhibition of growth: 0.03 % w/w
E. coli; commercial solvent borne acrylate paint, 0.0012 weight % Ag in coating
  E. coli growth on coating: +
E. coli; commercial solvent borne acrylate paint, 0.003 weight % Ag in coating
  E. coli growth on coating: +
E. coli; commercial solvent borne acrylate paint, 0.006 weight % Ag in coating
  E. coli growth on coating: +
E. coli; commercial solvent borne acrylate paint, 0.012 weight % Ag in coating
  E. coli growth on coating: +
E. coli; commercial solvent borne acrylate paint, 0.06 weight % Ag in coating
  E. coli growth on coating: −
E. coli; commercial solvent borne acrylate paint, 0.12 weight % Ag in coating
  E. coli growth on coating: −
E. coli; commercial solvent borne acrylic paint
  Silver level partially effective: 0.03 % Ag w/w
E. coli; laboratory solvent based acrylic paint
  Silver level with partial inhibition: 0.03%
E. coli; laboratory solvent borne acrylate paint, 0.0012 weight % Ag in coating
  E. coli growth on coating: +
E. coli; laboratory solvent borne acrylate paint, 0.003 weight % Ag in coating
  E. coli growth on coating: +
E. coli; laboratory solvent borne acrylate paint, 0.006 weight % Ag in coating
  E. coli growth on coating: +
E. coli; laboratory solvent borne acrylate paint, 0.012 weight % Ag in coating
  E. coli growth on coating: +
E. coli; laboratory solvent borne acrylate paint, 0.06 weight % Ag in coating
  E. coli growth on coating: −
E. coli; laboratory solvent borne acrylate paint, 0.12 weight % Ag in coating
  E. coli growth on coating: −
S. aureus [2]
  Silver level with partial growth: 0.012 % Ag w/w and 0.006 % Ag w/w
